In one test the target is T1, GST tagged PIP4KtypeIIB (Homo sapiens, UniProt P78356).
T1 construct: made in house; host or cells: E. coli
T1 sequence (P78356 1-416): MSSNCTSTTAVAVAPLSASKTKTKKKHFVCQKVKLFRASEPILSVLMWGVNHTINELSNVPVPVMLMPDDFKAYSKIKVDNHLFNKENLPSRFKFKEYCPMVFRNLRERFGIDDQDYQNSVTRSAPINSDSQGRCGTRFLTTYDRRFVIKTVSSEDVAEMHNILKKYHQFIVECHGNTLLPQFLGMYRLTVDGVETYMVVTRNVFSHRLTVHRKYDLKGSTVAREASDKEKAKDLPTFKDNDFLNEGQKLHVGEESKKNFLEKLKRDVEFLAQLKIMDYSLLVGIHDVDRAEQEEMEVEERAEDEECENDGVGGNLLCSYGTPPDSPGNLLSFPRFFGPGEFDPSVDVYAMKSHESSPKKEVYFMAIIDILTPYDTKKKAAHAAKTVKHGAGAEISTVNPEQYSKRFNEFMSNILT
The test is described as follows: Trans-FI P kinase assay PIP4K2B (PIP4KtypeIIB inhibition assay). The format is biochemical. The settings on record: Table 4; compounds listed under IC50 range headings; 100 uM GTP, 5 nM PIP4KIIB; read-out: Trans-FI P kinase assays: PIP4K2B IC50. The method, boiled down:
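Transcreener FI fluorescence, converted to GDP by calibration, tracked product from 5 nM E. coli-expressed GST-PIP4KIIB acting on 80 uM PI5P (DOPE carrier) with 100 uM GTP. Compound (top 4.8 uM final, 5% DMSO) was preincubated 1 h at 27 C before the 2 h reaction; IC50 fitted from residual activity.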

In test [1] the target is T2, PIP4K2A (full length protein, SignalChem) (Homo sapiens, UniProt P48426).
T2 construct: 4 nM PIP4K2A (full length protein, SignalChem); purchased SignalChem
T2 sequence (P48426 1-406): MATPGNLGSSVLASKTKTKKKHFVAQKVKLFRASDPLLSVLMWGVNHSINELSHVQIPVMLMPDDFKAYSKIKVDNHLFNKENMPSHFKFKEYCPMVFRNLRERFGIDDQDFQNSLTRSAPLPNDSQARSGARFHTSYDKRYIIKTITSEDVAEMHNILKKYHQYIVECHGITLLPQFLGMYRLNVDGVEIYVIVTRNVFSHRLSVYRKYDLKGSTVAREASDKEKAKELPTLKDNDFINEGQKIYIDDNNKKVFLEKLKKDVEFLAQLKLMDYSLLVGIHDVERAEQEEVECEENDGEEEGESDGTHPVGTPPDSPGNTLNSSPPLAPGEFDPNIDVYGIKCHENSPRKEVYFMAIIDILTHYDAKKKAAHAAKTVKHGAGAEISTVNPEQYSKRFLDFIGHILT
The test is described as follows: Kinase Assay PIP4K2 A (Sprint); ADP-Glo biochemical assay. The note with it: Table 2; compounds listed under IC50 range headings. The method, boiled down:
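ADP-Glo luminescence detected ADP after a 1 h RT reaction started with 60 μM ATP solution. Before that, full-length PIP4K2A (4 nM in mix) with 100 μM PI(5)P diC8 was pre-incubated 15 min with compounds in MOPS buffer pH 7.2, 25 mM MgCl2, 0.005% Tween 20. IC50 derived from % inhibition relative to DMSO over 10 three-fold concentrations.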
(ADP-Glo turns the ADP formed in a reaction into a luminescent signal.)

A further test has as its target T3, GST tagged PIP4KtypeIIA (Homo sapiens, UniProt P48426).
T3 construct: made in house; host or cells: E. coli
T3 sequence (P48426 1-406): T2 sequence (P48426 1-406)
The test is described as follows: ADP-glo kinase assay PIP4K 2A (PIP4KtypeIIA inhibition assay). The format is biochemical. The note with it: Table 3; compounds listed under IC50 range headings; 10 uM ATP, 0.5 nM PIP4KIIA. Summed up:
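Read-out was ADP-Glo luminescence converted to μM ADP, with IC50 plotted as % of no-inhibitor activity against log concentration. Reactions contained 10 μM ATP, 80 μM PI5P with DOPE carrier, and 0.5 nM GST-tagged PIP4KIIA (E. coli-expressed) in pH 7.3 HEPES/MgCl2 buffer with 5% DMSO. Enzyme and compound (≤4.8 μM) were preincubated 1 h at 27 °C before the 1 h reaction.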

The structures appear in SMILES notation.

`Nc1ncc(-c2ccnc3oc(C(=O)NCC4CC4)cc23)cc1-c1ccc(N2CCCC2=O)cc1` [Example 89, 4-(6-amino-5-(4-(2-oxopyrrolidin-1-yl)phenyl)pyridin-3-yl)-N-(cyclopropylmethyl)furo[2,3-b]pyridine-2-carboxamide]: the IC50 (in general, the point on the concentration scale where inhibition reaches its midpoint) at GST tagged PIP4KtypeIIB is 1 to 10 nM; in test [1] it was 1 to 5 nM; against GST tagged PIP4KtypeIIA, 1 to 10 nM.

For `COc1ncc(-c2cncc(-c3ccc(N4CCCC4=O)cc3)c2)c2c[nH]nc12` [Example 270, 1-(4-(5-(7-methoxy-2H-pyrazolo[3,4-c]pyridin-4-yl)pyridin-3-yl)phenyl)pyrrolidin-2-one], the figures for the IC50 (at GST tagged PIP4KtypeIIB; in test [1]; against GST tagged PIP4KtypeIIA) were 100 to 1000 nM, 5 to 100 nM and 100 to 1000 nM, respectively.

As to `Cn1ncc2c(-c3cnc(N)c(-c4ccc(N5CCCC5=O)cc4)c3)cn(CC3CCOCC3)c(=O)c21` [Example 92, 4-(6-amino-5-(4-(2-oxopyrrolidin-1-yl)phenyl)pyridin-3-yl)-1-methyl-6-((tetrahydro-2H-pyran-4-yl)methyl)-1,6-dihydro-7H-pyrazolo[3,4-c]pyridin-7-one], the IC50 on GST tagged PIP4KtypeIIB was in the range of 10 to 100 nM; in test [1] it was 5 to 100 nM; against GST tagged PIP4KtypeIIA, 10 to 100 nM.

As for `CN(CC1CCNCC1)C(=O)c1ccc(-c2cncc(-c3ccncc3)c2)cc1` [Example 179, 4-([3,4′-bipyridin]-5-yl)-N-methyl-N-(piperidin-4-ylmethyl)benzamide], the results for the IC50 (on GST tagged PIP4KtypeIIB; in test [1]; at GST tagged PIP4KtypeIIA) were more than 5000 nM, less than 5000 nM and more than 5000 nM, respectively.

For `COCCNC(=O)c1cc2c(-c3cnc(N)c(-c4ccc(N5CCCC5=O)cc4)c3)ccnc2o1` [Example 90, 4-(6-amino-5-(4-(2-oxopyrrolidin-1-yl)phenyl)pyridin-3-yl)-N-(2-methoxyethyl)furo[2,3-b]pyridine-2-carboxamide], the results for the IC50 (on GST tagged PIP4KtypeIIB; in test [1]; at GST tagged PIP4KtypeIIA) were 1 to 10 nM, 5 to 100 nM and 10 to 100 nM, respectively.

As for `Nc1ncc(Br)cc1-c1ccc(N2CCCC2=O)cn1` [Example 22, 1-(2′-amino-5′-bromo-[2,3′-bipyridin]-5-yl)pyrrolidin-2-one], the IC50 at GST tagged PIP4KtypeIIB was more than 5000 nM; in test [1], less than 5000 nM; against GST tagged PIP4KtypeIIA, more than 5000 nM.

As to `CN(C)C(=O)c1ccc(-c2cc(-c3ccnc4cc(C#N)ccc34)cnc2N)nc1` [Example 109, 2′-amino-5′-(7-cyanoquinolin-4-yl)-N,N-dimethyl-[2,3′-bipyridine]-5-carboxamide], the IC50 on GST tagged PIP4KtypeIIB was 1000 to 2500 nM; in test [1] it was 1000 to 2500 nM; against GST tagged PIP4KtypeIIA it was 2500 to 5000 nM.

With `Nc1ncc(-c2cccc3ncsc23)cc1-c1ccc(N2CCCC2=O)cn1` [Example 24, 1-(2′-amino-5′-(benzo[d]thiazol-7-yl)-[2,3′-bipyridin]-5-yl)pyrrolidin-2-one], the IC50 fell in the range of 1000 to 2500 nM at GST tagged PIP4KtypeIIB, 100 to 1000 nM in test [1] and 1000 to 2500 nM against GST tagged PIP4KtypeIIA.

For `O=C(O)c1cc2c(-c3cncc(-c4ccc(N5CCCC5=O)cc4)c3)ccnc2[nH]1` [Example 163, 4-(5-(4-(2-oxopyrrolidin-1-yl)phenyl)pyridin-3-yl)-1H-pyrrolo[2,3-b]pyridine-2-carboxylic acid], the IC50 on GST tagged PIP4KtypeIIB fell in the range of 10 to 100 nM; in test [1], 5 to 100 nM; against GST tagged PIP4KtypeIIA it was 100 to 1000 nM.

As to `Cc1[nH]c2ncccc2c1-c1cncc(-c2ccc(C(=O)N(C)C)cc2)c1` [Example 11, N,N-dimethyl-4-(5-(2-methyl-1H-pyrrolo[2,3-b]pyridin-3-yl)pyridin-3-yl)benzamide], the IC50 (on GST tagged PIP4KtypeIIB; in test [1]; against GST tagged PIP4KtypeIIA) was 100 to 1000 nM each time.

Consider `O=C1CCCN1c1ccc(-c2cncc(-c3ccnc4[nH]ncc34)c2)cc1` [Example 215, 1-(4-(5-(2H-pyrazolo[3,4-b]pyridin-4-yl)pyridin-3-yl)phenyl)pyrrolidin-2-one], for which the IC50 at GST tagged PIP4KtypeIIB lay in the range of 100 to 1000 nM; in test [1], 5 to 100 nM; against GST tagged PIP4KtypeIIA, 100 to 1000 nM.

`COCCNC(=O)c1cc2c(-c3cncc(-c4ccc(N5CCCC5=O)cc4)c3)ccnc2o1` [Example 80, N-(2-methoxyethyl)-4-(5-(4-(2-oxopyrrolidin-1-yl)phenyl)pyridin-3-yl)furo[2,3-b]pyridine-2-carboxamide]: the IC50 on GST tagged PIP4KtypeIIB fell in the range of 10 to 100 nM; in test [1], 5 to 100 nM; on GST tagged PIP4KtypeIIA it was 100 to 1000 nM.

For the molecule `O=C1CCCN1c1ccc(-c2cncc(-c3ccnc4c3OCCO4)c2)cc1` [Example 40, 1-[4-[5-(2,3-Dihydro-[1,4]dioxino[2,3-b]pyridin-8-yl)-3-pyridyl]phenyl]pyrrolidin-2-one], the IC50 on GST tagged PIP4KtypeIIB was in the range of 1000 to 2500 nM; in test [1], 100 to 1000 nM; against GST tagged PIP4KtypeIIA, 2500 to 5000 nM.

As to `O=C1CCCN1c1ccc(-c2cncc(-c3c[nH]c(=O)c4[nH]ncc34)c2)cc1` [Example 74, 4-(5-(4-(2-oxopyrrolidin-1-yl)phenyl)pyridin-3-yl)-1,6-dihydro-7H-pyrazolo[3,4-c]pyridin-7-one], the IC50 on GST tagged PIP4KtypeIIB lay in the range of 100 to 1000 nM; in test [1] it was 5 to 100 nM; on GST tagged PIP4KtypeIIA it was 100 to 1000 nM.

On to `CN(C)C(=O)c1ccc(-c2cc(-c3ccnc(CNC(=O)CCc4cccc(N)c4)c3)cnc2N)nc1` [Example 194, 2′-amino-2″-((3-(3-aminophenyl)propanamido)methyl)-N,N-dimethyl-[2,3′:5′,4″-terpyridine]-5-carboxamide], for which the IC50 is 2500 to 5000 nM on GST tagged PIP4KtypeIIB, 1000 to 2500 nM in test [1] and more than 5000 nM at GST tagged PIP4KtypeIIA.

Take `CC(C)CNC(=O)c1cc2c(-c3cnc(N)c(-c4ccc(C(=O)N(C)C)cn4)c3)ccnc2[nH]1` [Example 131, 4-(2′-amino-5-(dimethylcarbamoyl)-[2,3′-bipyridin]-5′-yl)-N-isobutyl-1H-pyrrolo[2,3-b]pyridine-2-carboxamide]: the figures for the IC50 (on GST tagged PIP4KtypeIIB; in test [1]; against GST tagged PIP4KtypeIIA) were 10 to 100 nM, 100 to 1000 nM and 100 to 1000 nM, respectively.

In the case of `CN(C)C(=O)c1cc2c(-c3cncc(-c4ccc(N5CCCC5=O)cc4)c3)ccnc2[nH]1` [Example 241, N,N-dimethyl-4-(5-(4-(2-oxopyrrolidin-1-yl)phenyl)pyridin-3-yl)-1H-pyrrolo[2,3-b]pyridine-2-carboxamide], the IC50 at GST tagged PIP4KtypeIIB lay in the range of 10 to 100 nM; in test [1], 5 to 100 nM; at GST tagged PIP4KtypeIIA, 10 to 100 nM.

`CN(C)C(=O)c1ccc(-c2cc(-c3[nH]nc4ncncc34)cnc2N)nc1` [Example 214, 2′-amino-N,N-dimethyl-5′-(2H-pyrazolo[3,4-d]pyrimidin-3-yl)-[2,3′-bipyridine]-5-carboxamide]: the IC50 (on GST tagged PIP4KtypeIIB; in test [1]; at GST tagged PIP4KtypeIIA) was 100 to 1000 nM each time.

As to `O=C1CCCN1c1ccc(-c2cncc(-c3cc(C4CC4)nc4n[nH]cc34)c2)cc1` [Example 267, 1-(4-(5-(6-cyclopropyl-2H-pyrazolo[3,4-b]pyridin-4-yl)pyridin-3-yl)phenyl)pyrrolidin-2-one], the IC50 on GST tagged PIP4KtypeIIB was 100 to 1000 nM; in test [1], 5 to 100 nM; at GST tagged PIP4KtypeIIA, 100 to 1000 nM.

For `N#Cc1[nH]c2ncccc2c1-c1cncc(-c2ccc(N3CCCC3=O)cc2)c1` [Example 51, 3-(5-(4-(2-oxopyrrolidin-1-yl)phenyl)pyridin-3-yl)-1H-pyrrolo[2,3-b]pyridine-2-carbonitrile], the IC50 is 10 to 100 nM at GST tagged PIP4KtypeIIB, 5 to 100 nM in test [1] and 100 to 1000 nM on GST tagged PIP4KtypeIIA.

For the molecule `CN(C)C(=O)c1ccc(-c2cc(-c3ccnc4[nH]c(C(=O)N5CC(C(N)=O)C5)cc34)cnc2N)nc1` [Example 130, 2′-amino-5′-(2-(3-carbamoylazetidine-1-carbonyl)-1H-pyrrolo[2,3-b]pyridin-4-yl)-N,N-dimethyl-[2,3′-bipyridine]-5-carboxamide], the IC50 (at GST tagged PIP4KtypeIIB; in test [1]; against GST tagged PIP4KtypeIIA) was 100 to 1000 nM in each case.
